In patent US20260116920A1, “HUMAN TRANSFERRIN RECEPTOR BINDING PEPTIDE” (PEPTIDREAM INC., priority 2021, published 2026):
pKd: −log10 of the molar value. Like-named read-outs stand apart in the source and are kept apart here. Positions of bridges follow the written chain, without caps; N, C: chain ends. Non-standard residues stand in square brackets, D forms with d. Residues, ends and D or L forms follow the SMILES beside them. *: point of attachment. Ala(1-CH2CO2H-4-piperidyl) = N[C@@H](CC1CCN(CC(=O)O)CC1)C(=O)O; Trp(1-CH2COOH) = N[C@@H](Cc1cn(CC(=O)O)c2ccccc12)C(=O)O; Nle(6-morpholino) = N[C@@H](CCCCN1CCOCC1)C(=O)O; Trp(7-aza) = N[C@@H](Cc1c[nH]c2ncccc12)C(=O)O; NH(CH2CH2O)8Me = COCCOCCOCCOCCOCCOCCOCCOCCN*; NMePhe(3-Cl) = CN[C@@H](Cc1cccc(Cl)c1)C(=O)O; NMeY = CN[C@@H](Cc1ccc(O)cc1)C(=O)O; 4Pal = N[C@@H](Cc1ccncc1)C(=O)O; PEG4 = NCCOCCOCCOCCOCCC(=O)O; Carboxymethyl = O=C(O)C*

Target: T1, human transferrin receptor (hTfR) (Homo sapiens, UniProt P02786)
T1 construct: made in house
Experiment: Evaluation of molecular interaction between transferrin receptor (hTfR) and peptide using surface plasmon resonance (SPR)
Type: binding
Outline: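 Steps: NTA chip loaded with NiCl2, activated with EDC/NHS, coated with 0.5 μM hTfR dimer, capped with ethanolamine. Peptides diluted from DMSO stock into running buffer (pH 8.0, 1.0% DMSO) at 5–100 nM and injected in single-cycle mode. Sensorgrams fitted to give KD.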

[1] = KD class for binding to hTfR by SPR, peptide with the linker shown in the same line, 'low signal indicates no activity', read-out: SPR
[2] = surface plasmon resonance, binding to hTfR, KD class symbol, read-out: SPR (KD value)

T1 sequence (P02786 89-760 limits assumed): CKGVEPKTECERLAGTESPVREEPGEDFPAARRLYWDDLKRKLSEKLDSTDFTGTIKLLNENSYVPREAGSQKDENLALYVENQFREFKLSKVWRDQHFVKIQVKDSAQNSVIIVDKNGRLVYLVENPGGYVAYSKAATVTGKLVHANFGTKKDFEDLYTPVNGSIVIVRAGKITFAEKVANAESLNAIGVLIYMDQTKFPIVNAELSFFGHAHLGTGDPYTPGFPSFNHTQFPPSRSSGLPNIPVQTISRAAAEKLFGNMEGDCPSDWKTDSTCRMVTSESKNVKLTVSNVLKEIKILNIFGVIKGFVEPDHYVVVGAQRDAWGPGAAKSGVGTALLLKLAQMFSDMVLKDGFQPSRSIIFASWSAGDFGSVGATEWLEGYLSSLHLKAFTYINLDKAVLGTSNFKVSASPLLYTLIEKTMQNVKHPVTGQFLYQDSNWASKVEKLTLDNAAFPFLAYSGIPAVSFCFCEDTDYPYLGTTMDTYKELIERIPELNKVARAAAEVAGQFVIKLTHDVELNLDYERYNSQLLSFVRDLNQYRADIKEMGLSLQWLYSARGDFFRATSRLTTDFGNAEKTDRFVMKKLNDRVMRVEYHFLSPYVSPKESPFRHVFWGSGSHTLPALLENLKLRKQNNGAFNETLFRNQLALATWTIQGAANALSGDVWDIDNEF

| Compound | pKd [1] | pKd [2] | also measured |
| --- | --- | --- | --- |
| CC[C@H](C)[C@@H]1NC(=O)[C@H](Cc2ccc(OCC(=O)O)cc2)NC(=O)[C@H](Cc2ccc(O)cc2)NC(=O)[C@H](CC(N)=O)NC(=O)[C@H](Cc2cn(CC(=O)O)c3ccccc23)NC(=O)[C@H](C(C)C)NC(=O)[C@H](Cc2cccc(Cl)c2)N(C)C(=O)[C@H](C(C)C)NC(=O)[C@H](C)NC(=O)CSC[C@@H](C(=O)NCCOCCOCCOCCOCCC(N)=O)NC(=O)[C@H](Cc2ccc(O)cc2)N(C)C(=O)[C@H](Cc2ccccc2)NC(=O)[C@H](CC2CCN(CC(=O)O)CC2)NC(=O)[C@H](CCCNC(=N)N)NC(=O)[C@H]([C@@H](C)CC)NC1=O [894_0387] ({CH2CO}-AV[NMePhe(3-Cl)]V[Trp(1-CH2COOH)]NYY(Carboxymethyl)IIR[Ala(1-CH2CO2H-4-piperidyl)]F[NMeY]C[PEG4]-NH2; thioether N-15) | 7.00 to 9.00 |  |  |
| CC[C@H](C)[C@@H]1NC(=O)[C@H](Cc2ccncc2)NC(=O)[C@H](Cc2ccc(O)cc2)NC(=O)[C@H](CC(N)=O)NC(=O)[C@H](Cc2c[nH]c3ccccc23)NC(=O)[C@H](C(C)C)NC(=O)[C@H](Cc2cccc(Cl)c2)N(C)C(=O)[C@H](C(C)C)NC(=O)[C@H](C)NC(=O)CSC[C@@H](C(=O)NCCOCCOCCOCCOCCC(N)=O)NC(=O)[C@H](Cc2ccc(O)cc2)N(C)C(=O)[C@H](Cc2ccncc2)NC(=O)[C@H](CCCNC(=N)N)NC(=O)[C@H](CCCNC(=N)N)NC(=O)[C@H]([C@@H](C)CC)NC1=O [compound 54] ({CH2CO}-AV[NMePhe(3-Cl)]VWNY[4Pal]IIRR[4Pal][NMeY]C[PEG4]-NH2; thioether N-15) |  | 7.00 to 9.00 |  |
| CC[C@H](C)[C@@H]1NC(=O)[C@H](Cc2ccc(OCC(=O)O)cc2)NC(=O)[C@H](Cc2ccc(O)cc2)NC(=O)[C@H](CC(N)=O)NC(=O)[C@H](Cc2cn(CC(=O)O)c3ccccc23)NC(=O)[C@H](C(C)C)NC(=O)[C@H](Cc2cccc(Cl)c2)N(C)C(=O)[C@H](C(C)C)NC(=O)[C@H](C)NC(=O)CSC[C@@H](C(=O)NCC(=O)N[C@H](CCC(=O)O)C(=O)N[C@H](CCC(=O)O)C(=O)N[C@H](CCC(=O)O)C(=O)N[C@H](CO)C(=O)N[C@H](CO)C(=O)N[C@@H](CCCCN=[N+]=[N-])C(N)=O)NC(=O)[C@H](Cc2ccc(O)cc2)N(C)C(=O)[C@H](Cc2ccccc2)NC(=O)[C@H](CCCNC(=N)N)NC(=O)[C@H](CCCNC(=N)N)NC(=O)[C@H]([C@@H](C)CC)NC1=O [compound 40] |  | > 9.00 |  |
| CC[C@H](C)[C@@H]1NC(=O)[C@H](Cc2ccc(OC)cc2)NC(=O)[C@H](Cc2ccc(O)cc2)NC(=O)[C@H](CC(N)=O)NC(=O)[C@H](Cc2c[nH]c3ccc(Cl)cc23)NC(=O)[C@H](C(C)C)NC(=O)[C@H](Cc2ccccc2)N(C)C(=O)[C@H](C(C)C)NC(=O)[C@H](C)NC(=O)CSC[C@@H](C(=O)NCC(=O)N[C@@H](CCCCN=[N+]=[N-])C(N)=O)NC(=O)[C@H](Cc2ccc(O)cc2)N(C)C(=O)[C@H](Cc2ccc(O)cc2)NC(=O)[C@H](CCCNC(=N)N)NC(=O)[C@H](CCCNC(=N)N)NC(=O)[C@H]([C@@H](C)CC)NC1=O [894_3162] | 7.00 to 9.00 |  |  |
| CC[C@H](C)[C@@H]1NC(=O)[C@H](Cc2ccc(OCC(=O)O)cc2)NC(=O)[C@H](Cc2ccc(O)cc2)NC(=O)[C@H](CC(N)=O)NC(=O)[C@H](Cc2cn(CC(=O)O)c3ccccc23)NC(=O)[C@H](C(C)C)NC(=O)[C@H](Cc2cccc(Cl)c2)N(C)C(=O)[C@H](C(C)C)NC(=O)[C@H](C)NC(=O)CSC[C@@H](C(=O)NCCOCCOCCOCCOCCC(N)=O)NC(=O)[C@H](Cc2ccc(O)cc2)N(C)C(=O)[C@H](Cc2ccccc2)NC(=O)[C@H](CCC(=O)NCCOCCOCCOCCOCCOCCOCCOCCOC)NC(=O)[C@H](CCCNC(=N)N)NC(=O)[C@H]([C@@H](C)CC)NC1=O [compound 102] |  | 7.00 to 9.00 |  |
| CC[C@H](C)[C@@H]1NC(=O)[C@H](Cc2ccc(OC)cc2)NC(=O)[C@H](Cc2ccc(O)cc2)NC(=O)[C@H](CC(N)=O)NC(=O)[C@H](Cc2c[nH]c3ccccc23)NC(=O)[C@H](C(C)C)NC(=O)[C@H](Cc2cccnc2)N(C)C(=O)[C@H](C(C)C)NC(=O)[C@H](C)NC(=O)CSC[C@@H](C(=O)NCCOCCOCCOCCOCCC(N)=O)NC(=O)[C@H](Cc2ccc(O)cc2)N(C)C(=O)[C@H](Cc2ccccc2)NC(=O)[C@H](CCCNC(=N)N)NC(=O)[C@H](CCCNC(=N)N)NC(=O)[C@H]([C@@H](C)CC)NC1=O [compound 55] |  | 7.00 to 9.00 |  |
| CC[C@H](C)[C@@H]1NC(=O)[C@H](Cc2ccc(OCC(=O)O)cc2)NC(=O)[C@H](Cc2ccc(O)cc2)NC(=O)[C@H](CC(N)=O)NC(=O)[C@H](Cc2cn(CC(=O)O)c3ccccc23)NC(=O)[C@H](C(C)C)NC(=O)[C@H](Cc2cccc(Cl)c2)N(C)C(=O)[C@H](C(C)C)NC(=O)[C@H](C)NC(=O)CSC[C@@H](C(=O)NCC(=O)N[C@@H](CCCCN=[N+]=[N-])C(N)=O)NC(=O)[C@H](Cc2ccc(O)cc2)N(C)C(=O)[C@H](Cc2ccccc2)NC(=O)[C@H](CCCNC(=N)N)NC(=O)[C@H](CCC(N)=O)NC(=O)[C@H]([C@@H](C)CC)NC1=O [894_3176] | 7.00 to 9.00 |  |  |
| CC[C@H](C)[C@@H]1NC(=O)[C@H](Cc2ccc(OCC(=O)O)cc2)NC(=O)[C@H](Cc2ccc(O)cc2)NC(=O)[C@H](CC(N)=O)NC(=O)[C@H](Cc2c[nH]c3ncccc23)NC(=O)[C@H](C(C)C)NC(=O)[C@H](Cc2cccc(Cl)c2)N(C)C(=O)[C@H](C(C)C)NC(=O)[C@H](C)NC(=O)CSC[C@@H](C(=O)NCCOCCOCCOCCOCCC(N)=O)NC(=O)[C@H](Cc2cccc(C(=O)NCCOCCOCCOCCOC)c2)N(C)C(=O)[C@H](Cc2cccc(C(=O)NCCOCCOCCOCCOC)c2)NC(=O)[C@H](CCCNC(=N)N)NC(=O)[C@H](CCC(N)=O)NC(=O)[C@H]([C@@H](C)CC)NC1=O [compound 132] |  | 7.00 to 9.00 |  |
| CC[C@H](C)[C@@H]1NC(=O)[C@H](Cc2ccc(OCC(=O)O)cc2)NC(=O)[C@H](Cc2ccc(O)cc2)NC(=O)[C@H](CC(N)=O)NC(=O)[C@H](Cc2cn(CC(=O)O)c3ccccc23)NC(=O)[C@H](C(C)C)NC(=O)[C@H](Cc2cccc(Cl)c2)N(C)C(=O)[C@H](C(C)C)NC(=O)[C@H](C)NC(=O)CSC[C@@H](C(=O)NCCOCCOCCOCCOCCC(N)=O)NC(=O)[C@H](Cc2ccc(O)cc2)N(C)C(=O)[C@H](Cc2ccccc2)NC(=O)[C@H](CCCNC(=N)N)NC(=O)[C@H](CCC(=O)N2CCN(CC(=O)O)CC2)NC(=O)[C@H]([C@@H](C)CC)NC1=O [894_0383] | 7.00 to 9.00 |  |  |
| CC[C@H](C)[C@@H]1NC(=O)[C@H](Cc2ccc(OCC(=O)O)cc2)NC(=O)[C@H](Cc2ccc(O)cc2)NC(=O)[C@H](CC(N)=O)NC(=O)[C@H](Cc2c[nH]c3ncccc23)NC(=O)[C@H](C(C)C)NC(=O)[C@H](Cc2cccc(Cl)c2)N(C)C(=O)[C@H](C(C)C)NC(=O)[C@H](C)NC(=O)CSC[C@@H](C(=O)NCCOCCOCCOCCOCCC(N)=O)NC(=O)[C@H](Cc2ccc(O)cc2)N(C)C(=O)[C@H](CCC(=O)NCCOCCOCCOCCOCCOCCOCCOCCOC)NC(=O)[C@H](CCCCN2CCOCC2)NC(=O)[C@H](CCC(=O)NCCOCCOCCOCCOCCOCCOCCOCCOC)NC(=O)[C@H]([C@@H](C)CC)NC1=O [compound 234] ({CH2CO}-AV[NMePhe(3-Cl)]V[Trp(7-aza)]NYY(Carboxymethyl)IIE(NH(CH2CH2O)8Me)[Nle(6-morpholino)]E(NH(CH2CH2O)8Me)[NMeY]C[PEG4]-NH2; thioether N-15) |  |  | pKd (peptide with linker, surface plasmon resonance, read-out: SPR (KD class for binding to hTfR)): 6.00 to 7.00 |
| CC[C@H](C)[C@@H]1NC(=O)[C@H](Cc2ccc(OCC(=O)O)cc2)NC(=O)[C@H](Cc2ccc(O)cc2)NC(=O)[C@H](CC(N)=O)NC(=O)[C@H](Cc2cn(CC(=O)O)c3ccccc23)NC(=O)[C@H](C(C)C)NC(=O)[C@H](Cc2cccc(Cl)c2)N(C)C(=O)[C@H](C(C)C)NC(=O)[C@H](C)NC(=O)CSC[C@@H](C(=O)NCC(=O)N[C@@H](CCCCN=[N+]=[N-])C(N)=O)NC(=O)[C@H](Cc2ccc(O)cc2)N(C)C(=O)[C@H](Cc2ccccc2)NC(=O)[C@H](CCC(N)=O)NC(=O)[C@H](CCCNC(=N)N)NC(=O)[C@H]([C@@H](C)CC)NC1=O [894_3177] | 7.00 to 9.00 |  |  |
| CC[C@H](C)[C@@H]1NC(=O)[C@H](Cc2ccc(OC)cc2)NC(=O)[C@H](Cc2ccc(O)cc2)NC(=O)[C@H](CC(N)=O)NC(=O)[C@H](Cc2cn(CC(=O)O)c3ccccc23)NC(=O)[C@H](C(C)C)NC(=O)[C@H](Cc2cccc(Cl)c2)N(C)C(=O)[C@H](C(C)C)NC(=O)[C@H](C)NC(=O)CSC[C@@H](C(=O)NCCOCCOCCOCCOCCC(N)=O)NC(=O)[C@H](Cc2ccc(O)cc2)N(C)C(=O)[C@H](Cc2ccccc2)NC(=O)[C@H](CCCNC(=N)N)NC(=O)[C@H](CCCNC(=N)N)NC(=O)[C@H]([C@@H](C)CC)NC1=O [compound 108] |  | > 9.00 |  |
| CC[C@H](C)[C@@H]1NC(=O)[C@H](Cc2ccc(OCC(=O)O)cc2)NC(=O)[C@H](Cc2ccc(O)cc2)NC(=O)[C@H](CC(N)=O)NC(=O)[C@H](Cc2c[nH]c3ccccc23)NC(=O)[C@H](C(C)C)NC(=O)[C@H](Cc2cccc(Cl)c2)N(C)C(=O)[C@H](C(C)C)NC(=O)[C@H](C)NC(=O)CSC[C@@H](C(=O)NCC(=O)N[C@H](CO)C(=O)N[C@H](CO)C(=O)N[C@H](CO)C(=O)N[C@H](CO)C(=O)N[C@H](CO)C(N)=O)NC(=O)[C@H](Cc2cccc(C(=O)NCCOCCOCCOCCOC)c2)N(C)C(=O)[C@H](Cc2cccc(C(=O)NCCOCCOCCOCCOC)c2)NC(=O)[C@H](CCCNC(=N)N)NC(=O)[C@H](CCC(N)=O)NC(=O)[C@H]([C@@H](C)CC)NC1=O [compound 129] |  | 7.00 to 9.00 |  |
| CC[C@H](C)[C@@H]1NC(=O)[C@H](Cc2ccc(OC)cc2)NC(=O)[C@H](Cc2ccc(O)cc2)NC(=O)[C@H](CC(N)=O)NC(=O)[C@H](Cc2c[nH]c3ccccc23)N(C)C(=O)[C@H](C(C)C)NC(=O)[C@H](Cc2cccc(Cl)c2)N(C)C(=O)[C@H](C(C)C)NC(=O)[C@H](C)NC(=O)CSC[C@@H](C(=O)NCC(=O)N[C@@H](CCCCN=[N+]=[N-])C(N)=O)NC(=O)[C@H](Cc2ccc(O)cc2)N(C)C(=O)[C@H](Cc2ccc(O)cc2)NC(=O)[C@H](CCCNC(=N)N)NC(=O)[C@H](CCCNC(=N)N)NC(=O)[C@H]([C@@H](C)CC)NC1=O [894_3166] | 7.00 to 9.00 |  |  |
